Columns and labels:
[1] = molecular target: FAAH (Mus musculus (Mouse), UniProt O08914); assay: Mouse brain proteomes from inhibitor treated mice (oral gavage, sacrificed 4 h after administration, ABPP analysis), FAAH; conditions: 5 mg/kg oral gavage
Experimental: (§1) Preparation of Mouse Brain Proteomes from Inhibitor Treated Mice.
(§2) Inhibitors were administered to wild-type C57Bl/6J by oral gavage in a vehicle of polyethylene glycol.

[2] = molecular target: MAGL (Mus musculus (Mouse), UniProt O35678); assay: Mouse brain proteomes from inhibitor treated mice (oral gavage, sacrificed 4 h after administration, ABPP analysis); conditions: 5 mg/kg oral gavage
Sequence of MAGL (O35678 whole entry): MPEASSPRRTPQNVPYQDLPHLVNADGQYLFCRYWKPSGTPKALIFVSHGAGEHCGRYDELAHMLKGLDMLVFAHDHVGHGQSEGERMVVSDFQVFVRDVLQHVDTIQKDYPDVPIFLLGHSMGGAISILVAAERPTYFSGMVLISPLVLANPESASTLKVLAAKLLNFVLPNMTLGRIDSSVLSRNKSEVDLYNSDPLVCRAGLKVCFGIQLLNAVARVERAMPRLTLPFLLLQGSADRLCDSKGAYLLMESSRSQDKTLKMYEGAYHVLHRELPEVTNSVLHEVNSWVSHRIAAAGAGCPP
Experimental: as §1, §2

Sequence of FAAH (O08914 whole entry): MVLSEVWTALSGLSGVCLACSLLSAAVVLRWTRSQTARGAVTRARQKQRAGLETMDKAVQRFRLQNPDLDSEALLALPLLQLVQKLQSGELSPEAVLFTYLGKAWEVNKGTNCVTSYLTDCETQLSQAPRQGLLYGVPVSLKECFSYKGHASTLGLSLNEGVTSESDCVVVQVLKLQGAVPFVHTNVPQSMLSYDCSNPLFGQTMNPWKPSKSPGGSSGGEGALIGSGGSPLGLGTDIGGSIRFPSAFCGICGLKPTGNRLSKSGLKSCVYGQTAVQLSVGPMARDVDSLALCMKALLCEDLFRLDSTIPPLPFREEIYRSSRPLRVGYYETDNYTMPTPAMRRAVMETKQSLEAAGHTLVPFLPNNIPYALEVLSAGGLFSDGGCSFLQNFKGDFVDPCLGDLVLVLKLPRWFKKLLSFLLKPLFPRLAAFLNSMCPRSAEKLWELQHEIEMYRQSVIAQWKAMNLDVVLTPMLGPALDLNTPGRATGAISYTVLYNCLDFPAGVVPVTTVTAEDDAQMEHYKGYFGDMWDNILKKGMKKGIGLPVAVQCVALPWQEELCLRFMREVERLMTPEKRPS

| SMILES | FAAH % inh. 5 mg/kg (mouse) [1] | MAGL % inh. 5 mg/kg (mouse) [2] |
| --- | --- | --- |
| CC(=O)NC1CCN(c2cc(C(F)(F)F)ccc2CN2CCN(C(=O)n3ccc(C(=O)O)n3)CC2)CC1 [Example 119, 1-(4-(2-(4-acetamidopiperidin-1-yl)-4-(trifluoromethyl)benzyl)piperazine-1-carbonyl)-1H-pyrazole-3-carboxylic acid] | D (% inhibition is greater than or equal to 0% and less than 25%) | D (% inhibition is greater than or equal to 0% and less than 25%) |
| O=C(O)c1ccn(C(=O)N2C[C@H]3C[C@H](OCc4ccc(Oc5ccc(Cl)cc5)cc4)C[C@H]3C2)n1 [Example 55, 1-(trans-5-((4-(4-chlorophenoxy)benzyl)-oxy)octahydrocyclo-penta-[c]pyrrole-2-carbonyl)-1H-pyrazole-3-carboxylic acid] | D (% inhibition is greater than or equal to 0% and less than 25%) | D (% inhibition is greater than or equal to 0% and less than 25%) |
| Cc1cn(C(=O)N2CCC3(CCN(Cc4cc(Cl)ccc4C(F)(F)F)C3)CC2)nc1C(=O)O [Example 130, 1-(2-(5-chloro-2-(trifluoromethyl)benzyl)-2,8-diazaspiro[4.5]decane-8-carbonyl)-4-methyl-1H-pyrazole-3-carboxylic acid] | D (% inhibition is greater than or equal to 0% and less than 25%) | D (% inhibition is greater than or equal to 0% and less than 25%) |
| O=C(O)c1ccn(C(=O)N2CCN(Cc3cccc(C(F)(F)F)c3N3CCCC3)CC2)n1 [Example 90, 1-(4-(2-(pyrrolidin-1-yl)-3-(trifluoromethyl)benzyl)piperazine-1-carbonyl)-1H-pyrazole-3-carboxylic acid] | D (% inhibition is greater than or equal to 0% and less than 25%) | D (% inhibition is greater than or equal to 0% and less than 25%) |
| O=C(O)c1ccn(C(=O)N2CCC3(CCCN3Cc3ccc(C(F)(F)F)cc3N3CCCC3)CC2)n1 [Example 93, 1-(1-(2-(pyrrolidin-1-yl)-4-(trifluoromethyl)benzyl)-1,8-diazaspiro[4.5]decane-8-carbonyl)-1H-pyrazole-3-carboxylic acid] | D (% inhibition is greater than or equal to 0% and less than 25%) | D (% inhibition is greater than or equal to 0% and less than 25%) |
| O=C(O)c1ccn(C(=O)N2CCN(Cc3ccc(C(F)(F)F)cc3N3CC[C@H](F)C3)CC2)n1 [Example 92, (S)-1-(4-(2-(3-fluoropyrrolidin-1-yl)-4-(trifluoromethyl)benzyl)-piperazine-1-carbonyl)-1H-pyrazole-3-carboxylic acid] | D (% inhibition is greater than or equal to 0% and less than 25%) | D (% inhibition is greater than or equal to 0% and less than 25%) |
| CN(Cc1ccc(C(F)(F)F)cc1-c1nccs1)C1(C)CCN(C(=O)n2ccc(C(=O)O)n2)CC1 [Example 10, 1-(4-methyl-4-(methyl(2-(thiazol-2-yl)-4-(trifluoromethyl)benzyl)amino)piperidine-1-carbonyl)-1H-pyrazole-3-carboxylic Acid] | D (% inhibition is greater than or equal to 0% and less than 25%) | D (% inhibition is greater than or equal to 0% and less than 25%) |
| O=C(O)c1ccn(C(=O)N2CCC3(CCCN3Cc3cc4ccc(C(F)(F)F)cc4s3)CC2)n1 [Example 185, 1-(1-((6-(trifluoromethyl)-benzo[b]thiophen-2-yl)methyl)-1,8-diazaspiro[4.5]-decane-8-carbonyl)-1H-pyrazole-3-carboxylic acid] | D (% inhibition is greater than or equal to 0% and less than 25%) | D (% inhibition is greater than or equal to 0% and less than 25%) |
| C[C@@H]1CCCN1c1cc(C(F)(F)F)ccc1CN1CCN(C(=O)n2ccc(C(=O)O)n2)CC1 [Example 95, (R)-1-(4-(2-(2-methylpyrrolidin-1-yl)-4-(trifluoromethyl)benzyl)piperazine-1-carbonyl)-1H-pyrazole-3-carboxylic acid] | D (% inhibition is greater than or equal to 0% and less than 25%) | D (% inhibition is greater than or equal to 0% and less than 25%) |

Reference: patent US11655217B2, “Pyrazole MAGL inhibitors” (H. Lundbeck A/S, priority 2017, dated 2023)
